Reference: paper PMC4727778, “Synthesis and Antifungal Evaluation of Novel N-Alkyl Tetra- and Perhydroquinoline Derivatives” (Scientia Pharmaceutica, 2014)
≈ marks a conversion by molar mass, not a printed value. Counter-ions that a name gives are not always drawn.

Experiments:
[1] = tested on: Aspergillus niger (DSMZ-Nr. 1988); experiment: Agar diffusion assay; type: cell-based; settings: A. niger, GI = growth inhibition, read-out: diameter of zones of total inhibition
Description: (§1) The resulting compounds and known compounds, 1-undecylpiperidine (7) and 1-decylpiperazine (8a), as well as 1-methyl-4-undecylpiperazine (8b) (prepared in the same way), were tested in an agar diffusion assay against Gram-positive (Staphylococcus equorum (DSMZ-Nr. 20675), Streptococcus entericus (DSZM-Nr. 14446)) and Gram-negative bacteria (Escherichia coli (DSMZ-Nr. 426), Pseudomonas marginalis (DSMZ-Nr. 7527)), as well as the fungi Yarrowia lipolytica (DSMZ-Nr. 1345), Candida glabrata (DSMZ-Nr.11226), Aspergillus niger (DSMZ-Nr. 1988), and Hyphopichia burtonii (DSMZ-Nr. 70663) (Table 1).

[2] = tested on: Candida glabrata (DSMZ-Nr.11226); experiment: Agar diffusion assay; type: cell-based; settings: Nakaseomyces glabratus, C. glabrata, GI = growth inhibition, read-out: diameter of zones of total inhibition
Description: as §1

[3] = tested on: Escherichia coli (DSMZ-Nr. 426); experiment: Agar diffusion assay; type: cell-based; settings: E. coli, GI = growth inhibition, read-out: diameter of zones of total inhibition
Description: as §1

[4] = tested on: Hyphopichia burtonii (DSMZ-Nr. 70663); experiment: Agar diffusion assay; type: cell-based; settings: H. burtonii, GI = growth inhibition, read-out: diameter of zones of total inhibition
Description: as §1

[5] = tested on: Pseudomonas marginalis (DSMZ-Nr. 7527); experiment: Agar diffusion assay; type: cell-based; settings: P. marginalis, GI = growth inhibition, read-out: diameter of zones of total inhibition
Description: as §1

[6] = tested on: Staphylococcus equorum (DSMZ-Nr. 20675); experiment: Agar diffusion assay; type: cell-based; settings: read-out: diameter of zones of total inhibition
Description: as §1

[7] = tested on: Streptococcus entericus (DSZM-Nr. 14446); experiment: Agar diffusion assay; type: cell-based; settings: S. entericus, GI = growth inhibition, read-out: diameter of zones of total inhibition
Description: as §1

[8] = tested on: Yarrowia lipolytica (DSMZ-Nr. 1345); experiment: Agar diffusion assay; type: cell-based; settings: Y. lipolytica, GI = growth inhibition, read-out: diameter of zones of total inhibition
Description: as §1

Candida glabrata = experiment: Microdilution assay (MIC); type: cell-based; settings: Nakaseomyces glabratus, hydrochlorides used, arithmetic average of two determinations, read-out: Minimal inhibitory concentration (MIC)
Description: (§2) For comparison, the N-undecylperhydroisoquinoline (C) was also tested here. For solubility reasons, the hydrochlorides were used in this assay (Table 2).

Saccharomyces cerevisiae = experiment: Microdilution assay (MIC); type: cell-based; settings: hydrochlorides used, arithmetic average of two determinations, read-out: Minimal inhibitory concentration (MIC)
Description: as §2

Yarrowia lipolytica = experiment: Microdilution assay (MIC); type: cell-based; settings: hydrochlorides used, arithmetic average of two determinations, read-out: Minimal inhibitory concentration (MIC)
Description: as §2

[9] = tested on: human leukemia cell line (HL 60); experiment: MTT test (cytotoxicity); type: cell-based; settings: HL 60 cell line, arithmetic average of three determinations
Description: The cytotoxicity of the compounds 3a–d, 5a–d, and 8b was determined in an MTT test against a human leukemia cell line (HL 60).

CCCCCCCCCN1CCC[C@@H]2CCCC[C@H]21 (racemic) (as salt: hydrochloride) [Compound 5a, (±)-trans-1-Nonyldecahydroquinoline hydrochloride]
melting point: 130 °C

CCCCCCCCCCN1CCC[C@@H]2CCCC[C@H]21 (racemic) (as salt: hydrochloride) [Compound 5b, (±)-trans-1-Decyldecahydroquinoline hydrochloride]
melting point: 128 °C

CCCCCCCCCCCN1CCC[C@@H]2CCCC[C@H]21 (racemic) (as salt: hydrochloride) [Compound 5c, (±)-trans-1-Undecyldecahydroquinoline hydrochloride]
melting point: 119 °C

CCCCCCCCCCCCN1CCC[C@@H]2CCCC[C@H]21 (racemic) (as salt: hydrochloride) [Compound 5d, (±)-trans-1-Dodecyldecahydroquinoline hydrochloride]
melting point: 113 °C

CCCCCCCCCN1CCC[C@@H]2CCCC[C@H]21 (racemic) [Compound 4a, (±)-trans-1-Nonyldecahydroquinoline]
zone of inhibition at 50 µg/disc [1]: 7 mm | zone of inhibition at 50 µg/disc [2]: 14 mm | zone of inhibition at 50 µg/disc [3]: 0 mm | zone of inhibition at 50 µg/disc [4]: 12 mm | zone of inhibition at 50 µg/disc [5]: 13 mm | zone of inhibition at 50 µg/disc [6]: 10 mm | zone of inhibition at 50 µg/disc [7]: 20 mm | zone of inhibition at 50 µg/disc [8]: 15 mm

CCCCCCCCCCN1CCC[C@@H]2CCCC[C@H]21 (racemic) [Compound 4b, (±)-trans-1-Decyldecahydroquinoline]
zone of inhibition at 50 µg/disc [1]: 12 mm | zone of inhibition at 50 µg/disc [2]: 16 mm | zone of inhibition at 50 µg/disc [3]: 0 mm | zone of inhibition at 50 µg/disc [4]: 20 mm | zone of inhibition at 50 µg/disc [5]: 15 mm | zone of inhibition at 50 µg/disc [6]: 13 mm | zone of inhibition at 50 µg/disc [7]: 22 mm | zone of inhibition at 50 µg/disc [8]: 19 mm

CCCCCCCCCCCN1CCC[C@@H]2CCCC[C@H]21 (racemic) [Compound 4c, (±)-trans-1-Undecyldecahydroquinoline]
zone of inhibition at 50 µg/disc [1]: 14 mm | zone of inhibition at 50 µg/disc [2]: 13 mm | zone of inhibition at 50 µg/disc [3]: 0 mm | zone of inhibition at 50 µg/disc [4]: 13 mm | zone of inhibition at 50 µg/disc [5]: 11 mm | zone of inhibition at 50 µg/disc [6]: 12 mm | zone of inhibition at 50 µg/disc [7]: 20 mm | zone of inhibition at 50 µg/disc [8]: 13 mm

CCCCCCCCCCCCN1CCC[C@@H]2CCCC[C@H]21 (racemic) [Compound 4d, (±)-trans-1-Dodecyldecahydroquinoline]
zone of inhibition at 50 µg/disc [2]: 9 mm | zone of inhibition at 50 µg/disc [3]: 0 mm | zone of inhibition at 50 µg/disc [4]: 11 mm | zone of inhibition at 50 µg/disc [5]: 14 mm | zone of inhibition at 50 µg/disc [6]: 9 mm | zone of inhibition at 50 µg/disc [7]: 12 mm | zone of inhibition at 50 µg/disc [8]: 9 mm

CCCCCCCCCN1CCC[C@@H]2CCCC[C@H]21 (racemic) [Compound 5a, (±)-trans-1-Nonyldecahydroquinoline hydrochloride]
MIC (Candida glabrata): 50 µg/mL | MIC (Saccharomyces cerevisiae): 2.5 µg/mL | MIC (Yarrowia lipolytica): 7.5 µg/mL | IC50 [9]: 22 µM

CCCCCCCCCCN1CCC[C@@H]2CCCC[C@H]21 (racemic) [Compound 5b, (±)-trans-1-Decyldecahydroquinoline hydrochloride]
MIC (Candida glabrata): 37.5 µg/mL | MIC (Saccharomyces cerevisiae): 1 µg/mL | MIC (Yarrowia lipolytica): 2.5 µg/mL | IC50 [9]: 7 µM

CCCCCCCCCN1CCCc2ccccc21 [Compound 2a, 1-Nonyl-1,2,3,4-tetrahydroquinoline]
zone of inhibition at 50 µg/disc [1]: 0 mm | zone of inhibition at 50 µg/disc [2]: 0 mm | zone of inhibition at 50 µg/disc [3]: 0 mm | zone of inhibition at 50 µg/disc [4]: 0 mm | zone of inhibition at 50 µg/disc [5]: 0 mm | zone of inhibition at 50 µg/disc [6]: 0 mm | zone of inhibition at 50 µg/disc [7]: 0 mm | zone of inhibition at 50 µg/disc [8]: 0 mm

CCCCCCCCCCN1CCCc2ccccc21 [Compound 2b, 1-Decyl-1,2,3,4-tetrahydroquinoline]
zone of inhibition at 50 µg/disc [1]: 0 mm | zone of inhibition at 50 µg/disc [2]: 0 mm | zone of inhibition at 50 µg/disc [3]: 0 mm | zone of inhibition at 50 µg/disc [4]: 0 mm | zone of inhibition at 50 µg/disc [5]: 0 mm | zone of inhibition at 50 µg/disc [6]: 0 mm | zone of inhibition at 50 µg/disc [7]: 0 mm | zone of inhibition at 50 µg/disc [8]: 0 mm

CCCCCCCCCCCN1CCCc2ccccc21 [Compound 2c, 1-Undecyl-1,2,3,4-tetrahydroquinoline]
zone of inhibition at 50 µg/disc [1]: 0 mm | zone of inhibition at 50 µg/disc [2]: 0 mm | zone of inhibition at 50 µg/disc [3]: 0 mm | zone of inhibition at 50 µg/disc [4]: 0 mm | zone of inhibition at 50 µg/disc [5]: 0 mm | zone of inhibition at 50 µg/disc [6]: 0 mm | zone of inhibition at 50 µg/disc [7]: 0 mm | zone of inhibition at 50 µg/disc [8]: 0 mm

CCCCCCCCCCCCN1CCCc2ccccc21 [Compound 2d, 1-Dodecyl-1,2,3,4-tetrahydroquinoline]
zone of inhibition at 50 µg/disc [1]: 0 mm | zone of inhibition at 50 µg/disc [2]: 0 mm | zone of inhibition at 50 µg/disc [3]: 0 mm | zone of inhibition at 50 µg/disc [4]: 0 mm | zone of inhibition at 50 µg/disc [5]: 0 mm | zone of inhibition at 50 µg/disc [6]: 0 mm | zone of inhibition at 50 µg/disc [7]: 0 mm | zone of inhibition at 50 µg/disc [8]: 0 mm

CCCCCCCCCN1CCCc2ccccc21.Cl [Compound 3a, 1-Nonyl-1,2,3,4-tetrahydroquinoline hydrochloride]
IC50 [9]: 19 µM | melting point: 65 °C

CCCCCCCCCCN1CCCc2ccccc21.Cl [Compound 3b, 1-Decyl-1,2,3,4-tetrahydroquinoline hydrochloride]
IC50 [9]: 60 µM | melting point: 61 °C

CCCCCCCCCCCN1CCCc2ccccc21.Cl [Compound 3c, 1-Undecyl-1,2,3,4-tetrahydroquinoline hydrochloride]
IC50 [9]: 16 µM | melting point: 52 °C

CCCCCCCCCCCCN1CCCc2ccccc21.Cl [Compound 3d, 1-Dodecyl-1,2,3,4-tetrahydroquinoline hydrochloride]
IC50 [9]: 15 µM | melting point: 49 °C

CCCCCCCCCCCC(=O)N1CCCc2ccccc21 [Compound 6, N-Dodecanoyl-1,2,3,4-tetrahydroquinoline]
zone of inhibition at 50 µg/disc [1]: 0 mm | zone of inhibition at 50 µg/disc [2]: 0 mm | zone of inhibition at 50 µg/disc [3]: 0 mm | zone of inhibition at 50 µg/disc [4]: 0 mm | zone of inhibition at 50 µg/disc [5]: 0 mm | zone of inhibition at 50 µg/disc [6]: 0 mm | zone of inhibition at 50 µg/disc [7]: 0 mm | zone of inhibition at 50 µg/disc [8]: 0 mm | melting point: 37 °C

CCCCCCCCCCN1CCNCC1 [Compound 8a, 1-decylpiperazine, reference compound]
zone of inhibition at 50 µg/disc [1]: 20 mm | zone of inhibition at 50 µg/disc [2]: 8 mm | zone of inhibition at 50 µg/disc [3]: 7 mm | zone of inhibition at 50 µg/disc [4]: 25 mm | zone of inhibition at 50 µg/disc [5]: 8 mm | zone of inhibition at 50 µg/disc [6]: 13 mm | zone of inhibition at 50 µg/disc [7]: 17 mm | zone of inhibition at 50 µg/disc [8]: 22 mm | MIC (Candida glabrata): 45 µg/mL (≈ 199 µM) | MIC (Saccharomyces cerevisiae): 5 µg/mL (≈ 22.1 µM) | MIC (Yarrowia lipolytica): 10 µg/mL (≈ 44.2 µM)

CN(C/C=C/C#CC(C)(C)C)Cc1cccc2ccccc12 [terbinafine, reference compound]
zone of inhibition at 50 µg/disc [1]: 26 mm | zone of inhibition at 50 µg/disc [2]: 0 mm | zone of inhibition at 50 µg/disc [4]: 15 mm | zone of inhibition at 50 µg/disc [8]: 12 mm

CN(C)[C@@H]1C(O)=C(C(N)=O)C(=O)[C@@]2(O)C(O)=C3C(=O)c4c(O)cccc4[C@@](C)(O)[C@H]3C[C@@H]12 [tetracycline, reference compound]
zone of inhibition at 50 µg/disc [1]: 0 mm | zone of inhibition at 50 µg/disc [2]: 0 mm | zone of inhibition at 50 µg/disc [3]: 26 mm | zone of inhibition at 50 µg/disc [4]: 0 mm | zone of inhibition at 50 µg/disc [5]: 12 mm | zone of inhibition at 50 µg/disc [6]: 30 mm | zone of inhibition at 50 µg/disc [7]: 10 mm | zone of inhibition at 50 µg/disc [8]: 0 mm
